Assay results from PubChem BioAssay AID1963835 (Molecular Pharmacology Branch, DTP, NCI, 2024).

System: 699152-130-R-J1-PDC complex spheroid viability
Experiment: Anticancer human tumor 699152-130-R-J1-PDC patient-derived pancreatic carcinoma cell line growth inhibition [POLQ]
Conditions: for IC50: curve of first compound; for viability, T/C: stronger effect = lower value
Procedure, shortened: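 Patient-derived tumour cells were co-cultured with HUVEC and mesenchymal stem cells as multicellular spheroids at 37 °C. They were treated with POLQ inhibitors (novobiocin, ART-558, RP6685) alone or combined with other agents. Top concentrations were at or near clinical Cmax (otherwise 10 microM; SN-38 at 1 microM), decreasing in half-log steps.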

[1] = second compound 0.0316 µM, first compound 0.0316 µM
[2] = second compound 0.0316 µM, first compound 0.1 µM
[3] = second compound 0.0316 µM, first compound 0.316 µM
[4] = second compound 0.0316 µM, first compound 1 µM
[5] = second compound 0.0316 µM, first compound 3.16 µM
[6] = second compound 0.0316 µM, first compound 10 µM
[7] = second compound 0.1 µM, first compound 0.0316 µM
[8] = second compound 0.1 µM, first compound 0.1 µM
[9] = second compound 0.1 µM, first compound 0.316 µM
[10] = second compound 0.1 µM, first compound 1 µM
[11] = second compound 0.1 µM, first compound 3.16 µM
[12] = second compound 0.1 µM, first compound 10 µM
[13] = second compound 0.316 µM, first compound 0.0316 µM
[14] = second compound 0.316 µM, first compound 0.1 µM
[15] = second compound 0.316 µM, first compound 0.316 µM
[16] = second compound 0.316 µM, first compound 1 µM
[17] = second compound 0.316 µM, first compound 3.16 µM
[18] = second compound 0.316 µM, first compound 10 µM
[19] = second compound 1 µM, first compound 0.0316 µM
[20] = second compound 1 µM, first compound 0.1 µM
[21] = second compound 1 µM, first compound 0.316 µM
[22] = second compound 1 µM, first compound 1 µM
[23] = second compound 1 µM, first compound 3.16 µM
[24] = second compound 1 µM, first compound 10 µM
[25] = second compound 3.16 µM, first compound 0.0316 µM
[26] = second compound 3.16 µM, first compound 0.1 µM
[27] = second compound 3.16 µM, first compound 0.316 µM
[28] = second compound 3.16 µM, first compound 1 µM
[29] = second compound 3.16 µM, first compound 3.16 µM
[30] = second compound 3.16 µM, first compound 10 µM
[31] = second compound 10 µM, first compound 0.0316 µM
[32] = second compound 10 µM, first compound 0.1 µM
[33] = second compound 10 µM, first compound 0.316 µM
[34] = second compound 10 µM, first compound 1 µM
[35] = second compound 10 µM, first compound 3.16 µM
[36] = second compound 10 µM, first compound 10 µM
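Note: spheroids exposed to agents for 7 days before viability reading.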
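Throughout, for viability, T/C: percent of DMSO vehicle control viability so 100% = vehicle and 0% = no viable signal.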

For CC1COCCN1c1cc(C2(O)CC3CCC(C2)O3)c2cnn(-c3ccn[nH]3)c2n1 (stereo not drawn) + Nc1ccc(C#CCN(C(=O)Cc2ncc(C(F)(F)F)cc2C(F)(F)F)c2ccc(F)cc2)nn1, the IC50 (second compound 0.0316 µM) was 1490 nM, the IC50 (second compound 0.1 µM) was 2700 nM and the IC50 (second compound 0.316 µM) was 1500 nM. It also gave an IC50 (second compound 1 µM) of 1380 nM, an IC50 (second compound 3.16 µM) of 1520 nM and an IC50 (second compound 10 µM) of 2210 nM. The viability, T/C [1] was 85.6%, the viability, T/C [2] was 81.3% and the viability, T/C [3] was 60.7%. For the same compound, the viability, T/C [4] was 56.8%, the viability, T/C [5] was 42.5% and the viability, T/C [6] was 35.1%. For the same compound, the viability, T/C [7] was 86.6%, the viability, T/C [8] was 79.1% and the viability, T/C [9] was 68.1%. The viability, T/C [10] was 61.3%, the viability, T/C [11] was 48.6% and the viability, T/C [12] was 36.2%. For the same compound, the viability, T/C [13] was 94.9%, the viability, T/C [14] was 85.7% and the viability, T/C [15] was 66.8%. It also gave a viability, T/C [16] of 53.6%, a viability, T/C [17] of 44.8% and a viability, T/C [18] of 35.9%. For the same compound, the viability, T/C [19] was 104%, the viability, T/C [20] was 83.5% and the viability, T/C [21] was 67.2%. For the same compound, the viability, T/C [22] was 53.2%, the viability, T/C [23] was 42.5% and the viability, T/C [24] was 30.6%. The viability, T/C [25] was 100%, the viability, T/C [26] was 84.6% and the viability, T/C [27] was 65.5%. The viability, T/C [28] was 51%, the viability, T/C [29] was 48.9% and the viability, T/C [30] was 40.3%. For the same compound, the viability, T/C [31] was 104%, the viability, T/C [32] was 90.9% and the viability, T/C [33] was 65.2%. It also gave a viability, T/C [34] of 56.8%, a viability, T/C [35] of 51.5% and a viability, T/C [36] of 37.1%.

C=CC(=O)N1CCN(c2nc(=O)n(-c3c(C)ccnc3C(C)C)c3nc(-c4c(O)cccc4F)c(F)cc23)C(C)C1 (stereo not drawn) + COC1C(OC(N)=O)C(O)C(Oc2ccc3c(O)c(NC(=O)c4ccc(O)c(CC=C(C)C)c4)c(=O)oc3c2C)OC1(C)C was tested, and the IC50 (second compound 0.0316 µM) was greater than 10000 nM, the IC50 (second compound 0.1 µM) was greater than 10000 nM and the IC50 (second compound 0.316 µM) was greater than 10000 nM. The IC50 (second compound 1 µM) was greater than 10000 nM, the IC50 (second compound 3.16 µM) was greater than 10000 nM and the IC50 (second compound 10 µM) was greater than 10000 nM. For the same compound, the viability, T/C [1] was 110%, the viability, T/C [2] was 98% and the viability, T/C [3] was 97.7%. The viability, T/C [4] was 102%, the viability, T/C [5] was 116% and the viability, T/C [6] was 100%. The viability, T/C [7] was 104%, the viability, T/C [8] was 96.3% and the viability, T/C [9] was 107%. The viability, T/C [10] was 118%, the viability, T/C [11] was 126% and the viability, T/C [12] was 114%. The viability, T/C [13] was 123%, the viability, T/C [14] was 108% and the viability, T/C [15] was 109%. The viability, T/C [16] was 103%, the viability, T/C [17] was 122% and the viability, T/C [18] was 105%. It also gave a viability, T/C [19] of 102%, a viability, T/C [20] of 108% and a viability, T/C [21] of 101%. It also gave a viability, T/C [22] of 108%, a viability, T/C [23] of 129% and a viability, T/C [24] of 104%. It also gave a viability, T/C [25] of 106%, a viability, T/C [26] of 92.8% and a viability, T/C [27] of 99.8%. For the same compound, the viability, T/C [28] was 105%, the viability, T/C [29] was 125% and the viability, T/C [30] was 114%. The viability, T/C [31] was 116%, the viability, T/C [32] was 94.7% and the viability, T/C [33] was 103%. The viability, T/C [34] was 110%, the viability, T/C [35] was 117% and the viability, T/C [36] was 106%.

CCc1c2c(nc3ccc(O)cc13)-c1cc3c(c(=O)n1C2)COC(=O)[C@]3(O)CC + COC1C(OC(N)=O)C(O)C(Oc2ccc3c(O)c(NC(=O)c4ccc(O)c(CC=C(C)C)c4)c(=O)oc3c2C)OC1(C)C showed an IC50 (second compound 0.0316 µM) of 22.6 nM, an IC50 (second compound 0.1 µM) of 21.3 nM and an IC50 (second compound 0.316 µM) of 25 nM. It also gave an IC50 (second compound 1 µM) of 40.5 nM, an IC50 (second compound 3.16 µM) of 25.6 nM and an IC50 (second compound 10 µM) of 24.9 nM. The viability, T/C (second compound 0.0316 µM, first compound 0.00316 µM) was 73.5%, the viability, T/C (second compound 0.0316 µM, first compound 0.01 µM) was 51.3% and the viability, T/C [1] was 43.5%. It also gave a viability, T/C [2] of 41.9%, a viability, T/C [3] of 24.4% and a viability, T/C [4] of 9.02%. The viability, T/C (second compound 0.1 µM, first compound 0.00316 µM) was 79.7%, the viability, T/C (second compound 0.1 µM, first compound 0.01 µM) was 49.5% and the viability, T/C [7] was 45.1%. The viability, T/C [8] was 37.3%, the viability, T/C [9] was 26.5% and the viability, T/C [10] was 10.1%. It also gave a viability, T/C (second compound 0.316 µM, first compound 0.00316 µM) of 79%, a viability, T/C (second compound 0.316 µM, first compound 0.01 µM) of 46.1% and a viability, T/C [13] of 47.6%. For the same compound, the viability, T/C [14] was 43.4%, the viability, T/C [15] was 22% and the viability, T/C [16] was 12.9%. It also gave a viability, T/C (second compound 1 µM, first compound 0.00316 µM) of 66.9%, a viability, T/C (second compound 1 µM, first compound 0.01 µM) of 57% and a viability, T/C [19] of 51.8%. For the same compound, the viability, T/C [20] was 45%, the viability, T/C [21] was 23.1% and the viability, T/C [22] was 7.35%. For the same compound, the viability, T/C (second compound 3.16 µM, first compound 0.00316 µM) was 66.7%, the viability, T/C (second compound 3.16 µM, first compound 0.01 µM) was 51.6% and the viability, T/C [25] was 46.9%. For the same compound, the viability, T/C [26] was 40.4%, the viability, T/C [27] was 28.5% and the viability, T/C [28] was 7.68%. The viability, T/C (second compound 10 µM, first compound 0.00316 µM) was 70.5%, the viability, T/C (second compound 10 µM, first compound 0.01 µM) was 55.7% and the viability, T/C [31] was 43.6%. For the same compound, the viability, T/C [32] was 39.6%, the viability, T/C [33] was 28% and the viability, T/C [34] was 7.11%.

For O=C(c1cc(Cc2n[nH]c(=O)c3ccccc23)ccc1F)N1CCN(C(=O)C2CC2)CC1 + COC1C(OC(N)=O)C(O)C(Oc2ccc3c(O)c(NC(=O)c4ccc(O)c(CC=C(C)C)c4)c(=O)oc3c2C)OC1(C)C, the IC50 (second compound 0.0316 µM) was less than 31.6 nM, the IC50 (second compound 0.1 µM) was less than 31.6 nM and the IC50 (second compound 0.316 µM) was less than 31.6 nM. The IC50 (second compound 1 µM) was less than 31.6 nM, the IC50 (second compound 3.16 µM) was less than 31.6 nM and the IC50 (second compound 10 µM) was less than 31.6 nM. For the same compound, the viability, T/C [1] was 38.8%, the viability, T/C [2] was 37.8% and the viability, T/C [3] was 35.3%. The viability, T/C [4] was 40.3%, the viability, T/C [5] was 35.7% and the viability, T/C [6] was 34%. It also gave a viability, T/C [7] of 42.7%, a viability, T/C [8] of 37.2% and a viability, T/C [9] of 38.5%. For the same compound, the viability, T/C [10] was 43.9%, the viability, T/C [11] was 37.2% and the viability, T/C [12] was 29.8%. For the same compound, the viability, T/C [13] was 40%, the viability, T/C [14] was 41.5% and the viability, T/C [15] was 40.6%. It also gave a viability, T/C [16] of 36.5%, a viability, T/C [17] of 33.6% and a viability, T/C [18] of 32.3%. It also gave a viability, T/C [19] of 41.6%, a viability, T/C [20] of 39.7% and a viability, T/C [21] of 36.9%. It also gave a viability, T/C [22] of 37.4%, a viability, T/C [23] of 39.6% and a viability, T/C [24] of 35.1%. The viability, T/C [25] was 39%, the viability, T/C [26] was 42.9% and the viability, T/C [27] was 41.3%. It also gave a viability, T/C [28] of 40.7%, a viability, T/C [29] of 36.8% and a viability, T/C [30] of 36.9%. For the same compound, the viability, T/C [31] was 38.3%, the viability, T/C [32] was 36.2% and the viability, T/C [33] was 36.2%. It also gave a viability, T/C [34] of 40.2%, a viability, T/C [35] of 42.9% and a viability, T/C [36] of 31.1%.
